This is an account of results in patent US20240059689A1, “PURINE DERIVATIVES AS ANTICANCER AGENTS” (Tango Therapeutics, Inc., priority 2021, published 2024).

The target of one assay is USP1-UAF1 (Homo sapiens, UniProt O94782). Briefly: Ubiquitin Rhodamine assay of USP1-UAF1 activity. In kind it is biochemical. Here is the method: Certain compounds of the disclosure were assessed for USP1-UAF1 activity in a Ubiquitin Rhodamine assay as described in Biology Example 1.
A further assay deals with MDA-MB-436. Briefly: Viability assay, BRCA1 mutant cell line MDA-MB-436. The class given is cell-based. Conditions: Homo sapiens, MDA-MB-436, viability, BRCA1 mutant MDA-MB-436; read-out: MDA-MB-436 rel IC50. The source says: (§1) Table 1 also indicates IC50 values in a viability assay for a non-isogenic pair of BRCA1 mutant (column 5-MDA-MB-436) and BRCA1 WT (column 6—HCC1954) cell lines. These values indicate the effect of treatment with compound on cell survival.

For the next assay, the system named is HCC1954. The assay can be described thus: Viability assay, BRCA1 WT cell line HCC1954. The class given is cell-based. Conditions: Homo sapiens, HCC1954, viability, read-out: HCC1954 rel IC50.
Text: as §1

The test system of a further assay is monoubiquitinated PCNA. The assay can be described thus: AlphaLISA assay measuring monoubiquitinated PCNA in MDA-MB-436. In kind it is cell-based. As to conditions: Homo sapiens, MDA-MB-436, monoubiquitinated PCNA, read-out: Alpha Lisa IC50. The text has this: Table 1 also indicates IC50 values for exemplary compounds in an AlphaLISA assay measuring monoubiquitinated PCNA in a BRCA1 mutant cell line (MDA-MB-436; column 7).

Sequence of USP1-UAF1 (O94782 whole entry): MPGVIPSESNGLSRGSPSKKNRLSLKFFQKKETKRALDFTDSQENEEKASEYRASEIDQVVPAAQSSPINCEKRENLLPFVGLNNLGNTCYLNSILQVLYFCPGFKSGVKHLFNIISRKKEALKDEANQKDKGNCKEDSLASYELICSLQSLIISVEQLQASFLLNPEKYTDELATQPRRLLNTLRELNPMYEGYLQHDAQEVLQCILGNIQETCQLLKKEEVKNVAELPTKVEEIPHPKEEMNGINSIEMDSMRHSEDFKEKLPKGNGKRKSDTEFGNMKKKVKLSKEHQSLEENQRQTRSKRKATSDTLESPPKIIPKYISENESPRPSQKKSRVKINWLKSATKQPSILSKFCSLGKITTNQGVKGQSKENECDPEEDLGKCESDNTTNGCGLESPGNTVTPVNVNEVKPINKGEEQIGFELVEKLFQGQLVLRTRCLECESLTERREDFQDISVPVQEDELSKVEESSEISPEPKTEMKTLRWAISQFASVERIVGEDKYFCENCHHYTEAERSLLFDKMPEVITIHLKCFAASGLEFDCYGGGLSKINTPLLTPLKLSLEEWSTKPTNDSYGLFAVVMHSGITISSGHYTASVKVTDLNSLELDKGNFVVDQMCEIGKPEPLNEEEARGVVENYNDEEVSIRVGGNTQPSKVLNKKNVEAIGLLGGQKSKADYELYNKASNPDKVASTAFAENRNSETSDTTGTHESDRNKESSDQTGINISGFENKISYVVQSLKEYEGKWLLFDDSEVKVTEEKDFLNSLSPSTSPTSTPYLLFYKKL
Sequence of USP1-UAF1 (Q8TAF3 whole entry partner): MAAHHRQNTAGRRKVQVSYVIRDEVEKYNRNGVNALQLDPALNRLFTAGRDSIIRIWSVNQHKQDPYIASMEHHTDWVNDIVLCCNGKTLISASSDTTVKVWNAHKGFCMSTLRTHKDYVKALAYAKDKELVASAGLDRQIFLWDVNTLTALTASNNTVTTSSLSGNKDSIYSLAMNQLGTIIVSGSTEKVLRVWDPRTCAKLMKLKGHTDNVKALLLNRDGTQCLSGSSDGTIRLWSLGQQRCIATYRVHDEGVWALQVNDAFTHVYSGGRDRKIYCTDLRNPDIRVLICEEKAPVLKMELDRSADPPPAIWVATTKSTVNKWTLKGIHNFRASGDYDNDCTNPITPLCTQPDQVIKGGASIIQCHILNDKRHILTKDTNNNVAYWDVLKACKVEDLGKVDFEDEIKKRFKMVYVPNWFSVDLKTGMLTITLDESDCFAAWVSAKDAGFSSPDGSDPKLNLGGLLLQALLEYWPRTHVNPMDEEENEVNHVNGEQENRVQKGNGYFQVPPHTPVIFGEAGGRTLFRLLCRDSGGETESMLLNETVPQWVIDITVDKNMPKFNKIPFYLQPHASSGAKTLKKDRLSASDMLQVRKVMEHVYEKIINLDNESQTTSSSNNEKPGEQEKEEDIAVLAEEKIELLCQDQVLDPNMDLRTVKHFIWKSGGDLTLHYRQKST

Turning to `CNc1nc(-c2ccccc2C(C)C)nc2c1n(C)c(=N)n2Cc1ccc(-c2nc(C(F)(F)F)cn2C)cc1` [Example A-18, 8-imino-2-(2-isopropylphenyl)-N, 7-dimethyl-9-(4-(1-methyl-4-(trifluoromethyl)-1H-imidazol-2-yl)benzyl)-8,9-dihydro-7H-purin-6-amine], the IC50 against USP1-UAF1 is 100 to 10000 nM; in the assay on MDA-MB-436, 250 to 10000 nM; with HCC1954, 250 to 10000 nM; with monoubiquitinated PCNA, at least 10000 nM.
On to `Cc1nc(-c2cc(F)ccc2C(C)C)nc2c1n(C)c(=N)n2Cc1ccc(-c2nc(Cl)cn2C)cc1` [Example A-27, 9-(4-(4-chloro-1-methyl-1H-imidazol-2-yl)benzyl)-2-(5-fluoro-2-isopropylphenyl)-6,7-dimethyl-7,9-dihydro-8H-purin-8-imine], for which the IC50 against USP1-UAF1 is below 30 nM; in the assay with MDA-MB-436 it was 250 to 10000 nM; with HCC1954, 250 to 10000 nM; in the assay with monoubiquitinated PCNA, 100 to 250 nM.

A word on the IC50: it is the concentration at which inhibition is half-maximal.
